According to patent publication US20110165128A1, “HOMING IN MESENCHYMAL STEM CELLS” (Columbia University in the City of New York, priority 2008, published 2011):

System: adhesion of hMSCs to HUVECs
Assay: Adhesion assay: adhesion of hMSCs to endothelial cells (HUVECs)
Type: cell-based, human
Settings: 0.5 μg/ml SDF-1 or 10 μM AMD3100
Text: Exposure of cells to hypoxia: HUVECs were exposed to hypoxia in a BD GasPak EZ Anaerobe Gas Generating Pouch System with an Indicator (BD Biosciences) as described (Potapova, 2007). As certified by the manufacturer, the Anaerobe Gas Generating Pouch System produces an atmosphere containing 10% carbon dioxide and 1% oxygen.
Adhesion Assay: Adhesion of hMSCs to endothelial cells was studied using hMSCs isolated from a monolayer or 3 day old hMSC spheroids. Cells were dissociated using 0.25% trypsin-EDTA solution (Lonza) for 15 min in the case of hMSC monolayers, or for 90 min in the case of the spheroids. Trypsinization was stopped by addition of trypsin inhibitor solution (Lonza). Isolated cells were washed with PBS, labeled with 2 μg/ml Calcein AM in HBSS for 45 min at 37 °C in a humidified atmosphere of 5% CO2, washed with HBSS and resuspended in DMEM supplemented with 5% fetal bovine serum. HUVECs were plated in 24 well plates and maintained in EBM-2 growth media for 2-3 days until they reached confluence. For the adhesion assay, EBM-2 media was replaced with 0.5 ml of DMEM supplemented with 5% fetal bovine serum. hMSCs (10,000 cells per well) were added to endothelial cells. The adhesion assay was performed in the presence 0.5 μg/ml SDF-1, 10 μM AMD3100 or without additives. Plates were placed on a rotation platform (30 rotations per min) and incubated for 30 min at 37° C. […] Fluorescence was acquired from the bottom of the plates using a POLARstar OPTIMA microplate reader at excitation/emission wavelengths of 485/520 nm. Background fluorescence was determined in the wells containing no hMSCs but a monolayer of endothelial cells. Total cell load was estimated as the fluorescence from non-washed wells with added hMSCs. A minimum six wells were used to estimate background fluorescence, total cell load or fluorescence from adhered cells. Percent of bound cells was calculated as a ratio between fluorescence of adhered cells and total cell load after subtraction of background fluorescence. […]

c1cc(CN2CCCNCCNCCCNCC2)ccc1CN1CCCNCCNCCCNCC1 [AMD3100]
effect on the adhesion of cells from the spheroids to endothelial cells preexposed to hypoxia (cells from 3 day old hMSC spheroids, HUVECs pre-exposed to hypoxia): no effect | stimulation of the adhesion of cells from the spheroids to normoxic endothelial cells (cells from 3 day old hMSC spheroids, normoxic HUVECs): 1.7±0.4 times | effect on the adhesion of hMSCs from a monolayer to endothelial cells (hMSCs from a monolayer, normoxic or pre-exposed to hypoxia HUVECs): Neither SDF-1 nor AMD3100 affected the adhesion
